Patent US7514404B2, “PNA-neamine conjugates and methods for producing and using the same” (University of Medicine & Dentistry of New Jersey, priority 2004, dated 2009)

System: pseudotyped HIV-1 virions carrying the firefly luciferase reporter gene
Assay: Luciferase activity in CEM cells infected with pseudotyped HIV-1 virions
Format: cell-based
Details: concentrations greater than 5 μM in the culture medium
Experimental: The ability of a TAR-specific PNA-neamine conjugate to block HIV-1 production when supplemented in the culture medium was also examined. Lymphocyte CEM cells were infected with pseudotyped HIV-1 virions carrying the firefly luciferase reporter gene. The infected cells were incubated with varying concentration of PNATAR-neamine conjugate 60 or naked PNATAR during 48 hours at 37° C. and lysed to measure firefly luciferase activity. Anti-TAR PNA-transportan conjugate (PNA-membrane-permeating peptide conjugate) known to inhibit HIV-1 replication (Kaushik, et al. (2002) supra) was used as a positive control. […] Supplementation of naked PNA of SEQ ID NO:1 in the culture medium had no influence on luciferase gene expression.
Isolation of HIV-1 Virions. The pseudotyped HIV-1 virions were isolated from the culture supernatant of 293T cells transfected with pHIV-1JR-CSF-Lucenv (-) and pVSV-G clones. The culture supernatant (500 mL) was filtered through 0.45 μm pore size membrane and centrifuged at 70,000 g for 45 minutes. […] HIV-1 virions were quantified by determining the RNA copy number in the sample using NUCLISENS® HIV-1-QT Amplication Kit (Organon Teknika, Durham, N.C.). […] The virion number estimated from the RNA copy number was in agreement with the number determined by p24 quantification (1 pg p24 per 12500 virions). […]

## NC[C@H]1O[C@H](O[C@H]2[C@H](O)[C@@H](O)[C@H](N)C[C@@H]2N)[C@H](N)[C@@H](O)[C@@H]1O [neamine core, neamine]
  inhibition of HIV-1 replication: did not inhibit
